Measurements published in patent US11452721B2, “Formulations of pimavanserin” (ACADIA Pharmaceuticals Inc., priority 2017, dated 2022).

Columns and labels:
[1] = tested on: DOI ((±)-2,5-dimethoxy-4-iodoamphetamine, a serotonin agonist) induced head twitches; settings: rat; oral doses of 3 and 10 mg/kg; cited from earlier work
[2] = tested on: hyperactivity induced by the N-methyl-D-aspartate antagonist MK-801; settings: mice; oral doses of 3 and 10 mg/kg; cited from earlier work
[3] = Laser light scattering particle size distribution (Malvern Mastersizer 2000); format: physicochemical; settings: before vs after granulation, FIG. 4/5
Description: The small quantity of water, its application using appropriate water atomization and/or water application rate are important reasons for the improved properties of pimavanserin. […] The actual amount of water to be sprayed at the granulation of pimavanserin may vary from batch to batch (depending on surrounding factors such as humidity, temperature, exact properties of the API batch, etc) but is still consider to be a small amount, e.g. 3-10% w/w based on the dry ingredients. The amount of water and the granulation process disclosed herein is controlled by controlling the impeller energy to achieve the targeted impeller speed. The appropriate impeller speed ensures sufficient mixing and controls the growth of granules. The specific small amount of water needed for each batch is controlled by the power consumption (amperage) of the granulator, i.e., if the amperage is […], additional amounts of water could be sprayed to the granulate in order to obtain pimavanserin having the properties desired in order to pharmaceutically manufacture capsules comprising 5-34 mg pimavanserin. […] The properties are achieved via a manufacturing process that includes granulation, using a suitable granulator, e.g. a high shear granulator, simultaneously spraying the adequate amount of water while mixing, followed by screening, and blending appropriate quantities of excipients. […]

[4] = FT4 Powder Rheology (FT4 Powder Rheometer, ASTM D7891-15); format: physicochemical; settings: FT4 measurement
Description: In addition to the bulk density and Carr's Index obtained according to USP <616>, method 1, FT4 Powder Rheology was obtained for the API (pimavanserin tartrate) and for the compositions disclosed herein using a FT4 Powder Rheometer according to ASTM D7891-15; Standard Test Method for Shear Testing of Powders Using the Freeman Technology FT4 Powder Rheometer Shear Cell.
As discussed herein above the flowability of the composition has been improved compared to the API (pimavanserin tartrate), which for example can be supported by the Specific Energy (SE) obtained from the FT4 measurements. Specific Energy is a measure of the powder's flowability when unconfined, such as during low stress filling, or low shear blending. The average Specific Energy (SE) for the API is about 10.08+/−0.23 mJ/g.
The FT4 Powder Rheometer was also used as yet another means to compare the bulk density between the API, the granulated pimavanserin and the blended pimavanserin compositions disclosed herein and in the accompanying claims. The bulk density is a conditioned bulk density as obtained by the FT4 measurement, in accordance with ASTM D7891-15; Standard Test Method for Shear Testing of Powders Using the Freeman Technology FT4 Powder Rheometer Shear Cell.
The blended pimavanserin composition used in the herein mention FT4 Powder Rheometry measurements comprised 34 mg pimavanserin, 59 mg microcrystalline cellulose and 1 mg magnesium stearate.

[5] = Carr's Index (Carr's Compressibility Index), USP <616>/<1174>; format: physicochemical
Method: (§1) Carr's Index compares the difference between the bulk density and tapped density of a substance to determine its compressibility. The bulk density and the Carr's Index may be determined in accordance with USP<616> (method for performing Bulk and Tapped Densities, method 1) and USP<1174> (definition of powder flow) respectively.
(§2) Table 1 visualizes that filling of a capsule, in particular a capsule of size 3 or 4 (capsule volumes of 0.30 and 0.21 ml respectively, approximately 120 mg and 85 mg respectively at a bulk density of […]). As evident from Table 1, native pimavanserin (API) would be challenging for a size 3 capsule and not possible for a capsule of size 4 without improving the bulk density (as comparison 85 mg of pimavanserin granulation would require about 0.17 ml compared to 0.29 ml for the native API) and flowability (Carr index is frequently used in pharmaceutical manufacturing as an indication of the flowability of a powder, e.g. 2016 U.S. Pharmacopoeias-National Formulary [USP 35 NF 30]).

[6] = Bulk density according to USP <616> method 1; format: physicochemical
Method: as §1, §2
The bulk density of the blended composition is >0.4 g/ml, such as 0.4-0.6 g/ml, such as about 0.5 g/ml determined according to USP <616>, method 1. […]
The bulk density of pimavanserin granulation is >0.4 g/ml, such as 0.4-0.6 g/ml, such as about 0.5 g/ml, determined according to USP <616>, method 1. […]

| Compound | activity in DOI induced head twitches [1] | attenuation of MK-801 induced hyperactivity [2] | particle size distribution D90 [3] | average Flow Rate Index (FRI) [4] | average Specific Energy (SE) [4] | average conditioned bulk density (CBD) ([4]; ASTM D7891-15) | Carr's Index [5] | volume required by 85 mg ([6]; 85 mg of material, from bulk density) | Bulk density according to USP <616> ([6]; USP <616> method 1) |
| --- | --- | --- | --- | --- | --- | --- | --- | --- | --- |
| CC(C)COc1ccc(CNC(=O)N(Cc2ccc(F)cc2)C2CCN(C)CC2)cc1 [Pimavanserin, N-(1-methylpiperidin-4-yl)-N-(4-fluorophenylmethyl)-N′-(4-(2-methylpropyloxy)phenylmethyl)carbamide] | effective | effective | – | – | – | – | – | – | – |
| pimavanserin tartrate [Native API] | – | – | about 30 μm | 1.90±0.01 | about 10.08+/−0.23 mJ/g | 0.336 ± 0.006 g/mL | 36 | 0.29 mL | 0.294 g/mL |
